{"source": "patent US7718677B2", "about": "“Methods and compositions for reduction of side effects of therapeutic treatments” (priority 2007, dated 2010)", "system": "Squirrel (Saimiri sciureus) monkeys with nigrostriatal damage", "assay": "Levodopa-induced dyskinesias in MPTP-lesioned monkeys, nicotine in drinking solution before levodopa (Example 1)", "assay_type": "in vivo", "conditions": "for dyskinetic ratings 3 hours after the afternoon levodopa treatment: scale 0-4, mean ± SE", "method": "Animals: Squirrel (Saimiri sciureus) monkeys (n=7) were purchased from World Wide Primates (Miami, Fla.). The animals weighed between 0.6-0.9 kg and were in mid to late adulthood as determined from their general appearance (dentition, fur, other). Female monkeys were used since older animals were available that may better model Parkinson's disease. The animals were placed in quarantine upon arrival, and maintained in a temperature-controlled room (27±3° C.) with a relative humidity>30%, under a 13/11-hour light/dark cycle. Monkey food chow and fruits/vegetables were provided once daily, with water provided ad libitum. The monkeys were housed in separate cages to allow for clear behavioral assessments. The animals were released from quarantine after 1 month and treatments initiated. All procedures conformed to the National Institutes of Health Guide for the Care and Use of Laboratory Animals and were approved by the Institutional Animal Care and Use Committee at the Parkinson's Institute.\n1-Methyl-4-phenyl-1,2,3,6-tetrahydropyridine (MPTP) administration: Prior to lesioning, the animals were allowed to acclimate to the colony and rated for parkinsonism as described (Langston et al. Ann Neurol. 2000; 47:S79-89). All values were within the normal range. The monkeys were then injected subcutaneously with 2.0 mg/kg MPTP (Sigma, St-Louis, Mo.) dissolved in saline. The animals were rated for parkinsonism 3-4 weeks after MPTP administration. The disability scores ranged from 0 (normal) to 28 for a severely parkinsonian animal. Animals were assessed for 1) spatial hypokinesia (reduction in use of the available cage space), 2) body bradykinesia (increased slowness in body movement), 3) left and 4) right manual dexterity, 5) balance, 6) freezing and 7) action tremor. If they were not parkinsonian, MPTP injection (1.0-2.0 mg/kg) was repeated from 2-5 times for total doses of 3.5 to 13.5 mg/kg. Despite multiple MPTP dosing, two of the animals were not stably parkinsonian.\nNicotine treatment: All monkeys (n=7) were then given a drinking solution for 3 weeks consisting of commercially available orange Gatorade® to mask nicotine's bitter taste (FIG. 1). The control group (n=4) was continued on Gatorade® only, while nicotine (free base) was added to the Gatorade of the treated group (n=3). Nicotine dosing was started at 50 μg/ml for 1 week, 150 μg/ml for 1 week, with the concentration increased by […] over the next few weeks, up to 650 μg/ml (FIG. 1).\nLevodopa administration: Monkeys were administered levodopa/carbidopa (5 mg/kg and 1.25 mg/kg, respectively), prepared by crushing a tablet of Sinemet® CR 100/25 (DuPont Pharma) and dissolving it in water. This dose of levodopa is within the range of that prescribed to Parkinson's disease patients. The monkeys were gavaged twice daily at 3.5-hour intervals for 8 weeks at a time using a 5-day-on/2-day-off schedule (Hsu et al., J Pharmacol Exp Ther. 2004; 311:770-777). During levodopa treatment, the monkeys were given fruits in the morning and food pellets 3.5 hours after the afternoon levodopa dose to optimize gastrointestinal absorption.\nDyskinesias were rated from videotapes, as described (Hsu et al., J Pharmacol Exp Ther. 2004; 311:770-777). This included a one hour baseline period (no drugs) from ˜8:00-9:00 AM, followed by two 3.5-hour treatment periods with levodopa starting at ˜9:00 AM and ˜12:30 PM. Dyskinesias were rated for 2-minute periods at 30-minute intervals by two independent raters blinded to treatment. They were rated on a scale of 0 (no dyskinesias) to 4; a score of 1 was indicative of subtle dyskinesias that were not sustained; 2, mild dyskinesias that were sustained; 3, moderate dyskinesias that impaired the ability to remain stationary; 4, severe dyskinesias that were generalized and incapacitating.\nData analyses: The levodopa treatment protocol used in the present study involved a 5-day-on/2-day-off schedule.", "note": "Marks after values point to notes of the source that are not given here."}
{"molecule": "CN1CCCC1c1cccnc1", "note": "(centres unmarked) [Nicotine, S-3-(1-methyl-2-pyrrolidinyl)pyridine]", "values": [{"measurement": "total dyskinesias (area under the curve of the time course)", "setting": "all time points vs monkeys not receiving nicotine", "value": "significant decrease"}, {"measurement": "decline in levodopa-induced dyskinesias", "setting": "animals pretreated with nicotine, levodopa naïve monkeys", "value": "~60", "unit": "%"}, {"measurement": "levodopa-induced dyskinesias over the course of the day (time course)", "setting": "nicotine up to 650 μg/ml in drinking solution, vs monkeys not receiving nicotine, entire 8-week period", "value": "significantly reduced"}, {"measurement": "peak dyskinesias (maximal dyskinetic score during the morning or afternoon)", "setting": "throughout the 8-week levodopa treatment vs control", "value": "decreased"}, {"measurement": "dyskinetic ratings 3 hours after the afternoon levodopa treatment", "setting": "week 2/3 of levodopa treatment, levodopa/carbidopa 5/1.25 mg/kg twice daily", "value": "0.3 ± 0.3"}, {"measurement": "dyskinetic ratings 3 hours after the afternoon levodopa treatment", "setting": "week 4 of levodopa treatment", "value": "0*"}, {"measurement": "dyskinetic ratings 3 hours after the afternoon levodopa treatment", "setting": "week 6 of levodopa treatment", "value": "0*"}, {"measurement": "dyskinetic ratings 3 hours after the afternoon levodopa treatment", "setting": "week 8 of levodopa treatment", "value": "0.2 ± 0.2"}]}
